Data published in publication PMC12334614, “Chidamide and cytarabine synergistically treat acute myeloid leukemia: inhibiting ribosome biogenesis via the MYC-RRP9 pathway” (Cell Death & Disease, 2025).

Key:
c-MYC = target: T1, c-MYC (Homo sapiens, UniProt P01106); assay: SPR (Biacore X100, steady-state affinity); format: binding
T1 construct: recombinant c-MYC protein (RayBiotech) immobilized on CM5 chip

MYC = target: T2, MYC (Homo sapiens, UniProt P01106, A416G/K413A/P406A/V409A); assay: SPR (Biacore X100, steady-state affinity); format: binding
T2 construct: recombinant MYC protein carrying the predicted substitutions (MedChemExpress HY-P7S1056)
T2 sequence (P01106 16-454 P406A/V409A/K413A/A416G): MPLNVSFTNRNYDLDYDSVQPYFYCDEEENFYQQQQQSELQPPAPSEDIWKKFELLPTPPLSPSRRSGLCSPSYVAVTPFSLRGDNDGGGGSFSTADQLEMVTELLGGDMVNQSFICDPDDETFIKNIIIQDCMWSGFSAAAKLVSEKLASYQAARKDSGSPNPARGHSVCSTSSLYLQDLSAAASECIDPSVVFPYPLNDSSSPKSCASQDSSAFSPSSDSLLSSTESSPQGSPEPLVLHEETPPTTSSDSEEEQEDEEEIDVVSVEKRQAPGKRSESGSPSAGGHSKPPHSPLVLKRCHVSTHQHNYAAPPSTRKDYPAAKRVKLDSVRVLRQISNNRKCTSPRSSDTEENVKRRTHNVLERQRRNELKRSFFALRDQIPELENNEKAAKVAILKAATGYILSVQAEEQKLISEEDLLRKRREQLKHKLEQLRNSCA

T1 sequence (P01106 16-454): as the sequence (P01106 16-454 P406A/V409A/K413A/A416G) above, with A391P, A394V, A398K, G401A counted along it

Kd (c-MYC): 795 nM
Kd (MYC): 3120 nM
SMILES: Nc1cc(F)ccc1NC(=O)c1ccc(CNC(=O)/C=C/c2cccnc2)cc1 [chidamide]
